Patent US20240199572A1, “COMPOUNDS, COMPOSITIONS, AND METHODS FOR TREATING TYPE 2 DIABETES AND DEMENTIA” (THE BOARD OF TRUSTEES OF THE UNIVERSITY OF ILLINOIS, priority 2021, published 2024)

What was measured:
ABCA1 protein = ABCA1 protein - HepG2 (immunoblot); format: cell-based; conditions: HepG2 hepatocarcinoma cells
Protocol: In vitro Immunoblot. Cells were lysed with RIPA buffer (Sigma) containing protease/phosphatase inhibitors (Cocktails II and III, respectively, EMD Millipore). Protein was quantified by BCA assay (Thermo Fisher Scientific). Denatured proteins were separated by gel electrophoresis (NuPage™ 4-12% Bis-Tris, Invitrogen) in MOPS running buffer at 120 V for 1 hour. Proteins were transferred to PDVF membranes (iBlot2). Membrane was blocked in 5% skim milk for 1 hour, incubated with primary antibody at 4° C. overnight, washed with TBST, and then incubated with HRP-linked secondary antibody (Cell Signaling Technology) for 1 hour at room temperature. After TBST wash, membrane was imaged using SUPERSIGNAL® West Femto™ substrate (Thermo Fisher Scientific) on Azure Biosystems c400 imager. Antibodies used: Abcam ab18180 (ABCA1, RRID:AB 444302), Thermo Fisher MA5-11685 (SREBP1, RRID:AB_10984077), Invitrogen MA5-15738 (GAPDH, RRID:AB_10977387).

J774 cells = experiment: Lipopolysaccharide-stimulated J774 cells, TNFα and NOS2; format: cell-based; conditions: co-treatment
Source text: qRT-PCR. For cell samples, treated cells were lysed with RLT plus lysis buffer (Qiagen). RNA was isolated with Qiagen RNEASY® Plus columns per manufacturer instructions, then reverse-transcribed to cDNA using […]® III Reverse Transcriptase (200 U/μL, Invitrogen) per supplier protocol. qPCR experiments were either performed with TAQMAN® gene expression master mix (Invitrogen) on a StepOne™ qPCR instrument or with […]® SYBR® Green SuperMix (Quanta Biosciences) on CFX Connect™ Real-Time PCR Detection System (BioRad), with fold-change quantified by ΔΔCt. For animal samples, 100 mg tissue was homogenized in 1 mL acid-guanidinium-phenol based reagent sold under the tradename TRIZOL® (Ambion), mixed vigorously in chloroform, and separated by centrifugation. Aqueous layer containing RNA was added to Qiagen RNEASY® Plus column; remaining stops were as described above for cell lysates.

LXRα = target: T1, LXRα (Homo sapiens, UniProt Q13133); experiment: LXRα NHR screen (DiscoverX NHR-Scan, β-gal reporter); format: cell-based
T1 sequence (Q13133 1-447): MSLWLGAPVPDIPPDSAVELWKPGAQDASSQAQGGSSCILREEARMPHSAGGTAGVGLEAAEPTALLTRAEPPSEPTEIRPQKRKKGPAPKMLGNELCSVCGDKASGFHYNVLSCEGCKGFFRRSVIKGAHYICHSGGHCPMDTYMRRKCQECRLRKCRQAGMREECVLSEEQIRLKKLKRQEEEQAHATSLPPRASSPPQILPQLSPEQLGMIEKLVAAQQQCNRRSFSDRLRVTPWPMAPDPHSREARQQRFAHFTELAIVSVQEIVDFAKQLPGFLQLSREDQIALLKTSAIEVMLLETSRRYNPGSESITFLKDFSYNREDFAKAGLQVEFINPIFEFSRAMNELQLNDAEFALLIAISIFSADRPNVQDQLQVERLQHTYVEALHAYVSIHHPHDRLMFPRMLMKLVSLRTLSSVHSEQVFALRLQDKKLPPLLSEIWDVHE
Protocol: (§1) Receptor Binding Assays. Nuclear hormone (NHR) assays were performed by DiscoverX (Fremont, CA) on their NHR-Scan platform of cell-based protein-protein interaction assays. This platform uses a […] reporter that activates upon interaction of full-length receptor protein with steroid coactivator receptor peptides. In agonist mode, activity of CL2-57 at 10 μM was compared to maximal activity of published positive control agonists; in antagonist mode, reduction in activity with 10 μM CL2-57 from that observed at […] of published agonists was quantified.

LXRβ = target: T2, LXRβ (Homo sapiens, UniProt P55055); experiment: LXRβ NHR screen (DiscoverX NHR-Scan, β-gal reporter); format: cell-based
T2 sequence (P55055 1-460): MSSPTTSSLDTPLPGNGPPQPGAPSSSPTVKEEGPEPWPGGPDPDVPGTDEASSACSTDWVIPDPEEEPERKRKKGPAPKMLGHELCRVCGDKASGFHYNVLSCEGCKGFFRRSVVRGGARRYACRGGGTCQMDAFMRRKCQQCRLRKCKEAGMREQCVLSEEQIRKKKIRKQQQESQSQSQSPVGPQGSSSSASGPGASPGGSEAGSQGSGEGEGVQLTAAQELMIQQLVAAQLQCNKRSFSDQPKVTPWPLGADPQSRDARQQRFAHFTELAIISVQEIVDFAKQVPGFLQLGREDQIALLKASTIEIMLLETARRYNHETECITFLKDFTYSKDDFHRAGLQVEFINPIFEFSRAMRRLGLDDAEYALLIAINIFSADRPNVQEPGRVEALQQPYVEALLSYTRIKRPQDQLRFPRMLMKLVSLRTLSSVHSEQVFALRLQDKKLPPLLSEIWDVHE
Protocol: as §1

PPARγ = target: T3, PPARγ (Homo sapiens, UniProt P37231); experiment: PPARγ NHR screen, antagonist mode; conditions: cell-based β-gal reporter assay, 10 μM
T3 sequence (P37231 1-505): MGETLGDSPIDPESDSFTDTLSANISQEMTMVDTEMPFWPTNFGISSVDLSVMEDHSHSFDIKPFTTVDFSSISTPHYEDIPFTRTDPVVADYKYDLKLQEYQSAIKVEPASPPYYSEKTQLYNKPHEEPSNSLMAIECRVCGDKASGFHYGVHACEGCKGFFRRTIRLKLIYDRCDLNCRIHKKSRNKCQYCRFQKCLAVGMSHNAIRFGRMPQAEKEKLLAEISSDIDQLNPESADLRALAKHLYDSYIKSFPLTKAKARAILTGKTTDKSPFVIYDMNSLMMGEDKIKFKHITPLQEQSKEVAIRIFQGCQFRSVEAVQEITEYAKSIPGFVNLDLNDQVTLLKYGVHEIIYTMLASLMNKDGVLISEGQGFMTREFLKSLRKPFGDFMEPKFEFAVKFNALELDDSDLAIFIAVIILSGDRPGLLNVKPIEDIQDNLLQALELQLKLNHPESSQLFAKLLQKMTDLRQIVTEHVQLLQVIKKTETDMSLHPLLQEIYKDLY
Protocol: as §1

ABCA1 = ABCA1 firefly reporter assay in CCF-001 cells; format: cell-based; conditions: ABCA1 firefly reporter assay in CCF-001 cells (Table 8)

LXRα NHR screen, activity of CL2-57 (10 μM) as % of T0901317 (1 μM) (LXRα): 34%
LXRβ NHR screen, activity of CL2-57 (10 μM) as % of T0901317 (1 μM) (LXRβ; 10 μM): 75%
LXR β/α selectivity by Emax (LXRβ; cell-based β-gal reporter assays): 2.5 fold
Functional mode at LXR (LXRβ; cell-based β-gal reporter assays, 10 μM): partial LXR agonist
Functional mode at PPARγ (PPARγ): weak antagonist
EC50 (ABCA1): 817 nM
SMILES: CCOC(=O)c1cccc(NC(=O)c2sc(Cl)cc2S(=O)(=O)N(C)c2ccc(OCC)c(OCC)c2)c1 [CL2-57, ethyl 3-(5-chloro-3-(N-(3,4-diethoxyphenyl)-N-methylsulfamoyl)thiophene-2-carboxamido) benzoate]
ABCA1 protein (ABCA1 protein): Increased
LPS-induced increase of NOS2 (J774 cells): dose-dependently reversed
LPS-induced increase of TNFα (J774 cells): dose-dependently reversed
